This note sets out measurements from patent US12448394B2, “Heterocyclic pyrazole derivatives as type III receptor tyrosine kinase inhibitors” (DEVELOPMENT CENTER FOR BIOTECHNOLOGY, priority 2019, dated 2025).

Where a chain is given by its changes, count along the chain named. A value given as a limit tells only on which side of the number the result lay.

One test concerns the target T1, FLT3 kinase (Homo sapiens, UniProt P36888).
T1 construct: purchased SignalChem
T1 sequence (P36888 27-993): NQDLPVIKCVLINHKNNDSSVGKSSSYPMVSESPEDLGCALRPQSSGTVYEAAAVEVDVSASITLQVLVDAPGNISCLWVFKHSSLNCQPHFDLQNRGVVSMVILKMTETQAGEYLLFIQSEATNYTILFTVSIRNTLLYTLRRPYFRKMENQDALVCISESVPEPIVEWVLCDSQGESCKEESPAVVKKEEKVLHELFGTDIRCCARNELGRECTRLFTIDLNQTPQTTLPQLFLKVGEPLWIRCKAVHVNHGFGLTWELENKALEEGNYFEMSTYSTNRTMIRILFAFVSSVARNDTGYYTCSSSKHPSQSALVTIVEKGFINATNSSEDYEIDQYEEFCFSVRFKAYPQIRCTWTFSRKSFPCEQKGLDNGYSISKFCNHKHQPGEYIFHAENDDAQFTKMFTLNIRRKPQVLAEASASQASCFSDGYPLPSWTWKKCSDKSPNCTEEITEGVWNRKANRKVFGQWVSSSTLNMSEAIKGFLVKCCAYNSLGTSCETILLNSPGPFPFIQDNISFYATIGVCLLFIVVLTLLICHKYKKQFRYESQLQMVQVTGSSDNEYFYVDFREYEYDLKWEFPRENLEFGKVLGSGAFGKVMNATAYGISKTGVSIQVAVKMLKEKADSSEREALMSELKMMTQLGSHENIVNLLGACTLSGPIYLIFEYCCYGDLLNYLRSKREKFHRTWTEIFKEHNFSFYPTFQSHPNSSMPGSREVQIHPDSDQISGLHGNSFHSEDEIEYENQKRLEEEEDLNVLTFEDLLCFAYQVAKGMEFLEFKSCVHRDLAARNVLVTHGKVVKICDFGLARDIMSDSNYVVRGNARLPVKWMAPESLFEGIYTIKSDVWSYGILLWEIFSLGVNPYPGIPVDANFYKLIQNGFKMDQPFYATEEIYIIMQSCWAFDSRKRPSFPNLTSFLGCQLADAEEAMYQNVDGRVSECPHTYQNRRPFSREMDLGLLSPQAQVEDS
Description: FLT3 kinase assay (AlphaScreen). In kind it is biochemical. As to conditions: read-out: Ranking of IC50 values, FLT3. The method in brief:
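AlphaScreen detection of biotin-poly(Glu4:Tyr1) phosphorylation by 1.5 ng recombinant FLT3 (10 μM ATP, pH 7.0 MOPS, 10 mM MgCl2; 30 °C, 30 min, EDTA quench). IC50 values derived from serially diluted compound tested in duplicate.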

In the next test the target is T2, FLT3-D835Y mutant kinase (Homo sapiens, UniProt P36888, D835Y).
T2 construct: purchased SignalChem
T2 sequence (P36888 27-993 D835Y): T1 sequence (P36888 27-993) with D809Y
In words: FLT3-D835Y mutant kinase assay (AlphaScreen). The format is biochemical. As to conditions: read-out: Ranking of IC50 values, FLT3-D835Y. Put shortly: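 AlphaScreen readout of biotin-poly(Glu4:Tyr1) phosphorylation by 1 ng recombinant FLT3-D835Y. Conditions were 10 μM ATP, 10 mM MgCl2, MOPS pH 7.0, 30 min at 30 °C, EDTA stop. Compounds were serially diluted in duplicate to derive IC50.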

As for `Cn1ncc2ccc(-c3n[nH]c4c3Cc3sc(N5CCOCC5=O)cc3-4)cc21` [Compound 79, 4-(3-(1-methyl-1H-indazol-6-yl)-1,4-dihydro-thieno[2′,3′:4,5]cyclopenta [1,2-c]pyrazol-6-yl) morpholin-3-one], the half-maximal inhibitory concentration (IC50) on FLT3 kinase and at FLT3-D835Y mutant kinase was less than 1 nM throughout.
Take `Cn1ncc2ccc(-c3n[nH]c4c3Cc3sc(-c5csc(CN6CCOCC6)c5)cc3-4)cc21` [Compound 52, 4-((4-(3-(1-methyl-1H-indazol-6-yl)-1,4-dihydro-thieno[2′,3′:4,5]cyclopenta [1,2-c]pyrazol-6-yl)thiophen-2-yl)methyl) morpholine]: the IC50 at FLT3 kinase and at FLT3-D835Y mutant kinase was less than 1 nM each time.
Consider `CN(C)S(=O)(=O)c1ccc(-c2cc3c(s2)Cc2c(-c4ccc5cnn(C)c5c4)n[nH]c2-3)cc1` [Compound 50, N,N-dimethyl-4-(3-(1-methyl-1H-indazol-6-yl)-1,4-dihydrothieno [2′,3′:4,5]cyclopenta [1,2-c]pyrazol-6-yl) benzenesulfonamide], for which the IC50 at FLT3 kinase and at FLT3-D835Y mutant kinase was less than 1 nM in each case.
As for `C[C@@H]1CN(C(=O)c2ccc(-c3cc4c(s3)Cc3c(-c5ccc6cnn(C)c6c5)n[nH]c3-4)cc2)C[C@H](C)O1` [Compound 19, ((2S,6R)-2,6-dimethyl-morpholino)(4-(3-(1-methyl-1H-indazol-6-yl)-1,4-dihydrothieno[2′,3′:4,5]cyclopenta[1,2-c]pyrazol-6-yl)phenyl)methanone], the IC50 on FLT3 kinase and on FLT3-D835Y mutant kinase was 1 to 10 nM in each case.
Regarding `Cc1cc(-c2cc3c(s2)Cc2c(-c4ccc5cnn(C)c5c4)n[nH]c2-3)ccc1CN1CCOCC1` [Compound 26, 4-(2-methyl-4-(3-(1-methyl-1H-indazol-6-yl)-1,4-dihydrothieno[2′,3′:4,5]cyclopenta[1,2-c]pyrazol-6-yl)benzyl)morpholine], the IC50 at FLT3 kinase and at FLT3-D835Y mutant kinase was 1 to 10 nM throughout.
With `Cn1ncc2ccc(-c3n[nH]c4c3Cc3sc(-c5ccc(C(=O)N6CCCC6)cc5)cc3-4)cc21` [Compound 38, (4-(3-(1-methyl-1H-indazol-6-yl)-1,4-dihydro-thieno[2′,3′:4,5]cyclopenta [1,2-c]pyrazol-6-yl)phenyl)(pyrrolidin-1-yl) methanone], the IC50 at FLT3 kinase and on FLT3-D835Y mutant kinase was 1 to 10 nM in each case.
Take `Cn1ncc2ccc(-c3n[nH]c4c3Cc3sc(-c5ccc(CN6CC7(COC7)C6)cc5)cc3-4)cc21` [Compound 102, 6-(4-(3-(1-methyl-1H-indazol-6-yl)-1,4-dihydro-thieno[2′,3′:4,5]cyclopenta [1,2-c]pyrazol-6-yl)benzyl)-2-oxa-6-azaspiro [3.3]heptane]: the IC50 at FLT3 kinase and on FLT3-D835Y mutant kinase was less than 1 nM each time.
In the case of `Cc1cc(-c2cc3c(s2)Cc2c(-c4ccc5cnn(C)c5c4)n[nH]c2-3)ccn1` [Compound 17, 3-(1-methyl-1H-indazol-6-yl)-6-(2-methylpyridin-4-yl)-1,4-dihydrothieno [2′,3′:4,5]cyclopenta[1,2-c] pyrazole], the IC50 on FLT3 kinase and at FLT3-D835Y mutant kinase was 1 to 10 nM in each case.
With `Cn1ncc2ccc(-c3n[nH]c4c3Cc3sc(-c5ccc(CN6CCOCC6)c(C(F)(F)F)c5)cc3-4)cc21` [Compound 27, 4-(4-(3-(1-methyl-1H-indazol-6-yl)-1,4-dihydrothieno[2′,3′:4,5]cyclopenta[1,2-c]pyrazol-6-yl)-2-(trifluoromethyl)benzyl)morpholine], the IC50 on FLT3 kinase and on FLT3-D835Y mutant kinase was 1 to 10 nM each time.
Turning to `C[C@@H]1CN(Cc2ccc(-c3cc4c(s3)Cc3c(-c5ccc6cnn(C)c6c5)n[nH]c3-4)cn2)C[C@H](C)O1` [Compound 9, (2S,6R)-2,6-dimethyl-4-((5-(3-(1-methyl-lH-indazol-6-yl)-1,4-dihydro-thieno[2′,3′:4,5]cyclopenta [1,2-c]pyrazol-6-yl)pyridin-2-yl)methyl) morpholine], the IC50 at FLT3 kinase and at FLT3-D835Y mutant kinase was less than 1 nM throughout.
`Cn1ncc2ccc(-c3n[nH]c4c3Cc3sc(-c5ccc(CCN6CCOCC6)cc5)cc3-4)cc21` [Compound 22, 4-(4-(3-(1-methyl-1H-indazol-6-yl)-1,4-dihydro-thieno[2′,3′:4,5]cyclopenta [1,2-c]pyrazol-6-yl)phenethyl)morpholine]: the figures for the IC50 at FLT3 kinase and on FLT3-D835Y mutant kinase were less than 1 nM and 1 to 10 nM, respectively.
Consider `Cn1ncc2ccc(-c3n[nH]c4c3Cc3sc(C5=CCN(C(=O)N6CCOCC6)CC5)cc3-4)cc21` [Compound 57, (4-(3-(1-methyl-1H-indazol-6-yl)-1,4-dihydro-thieno[2′,3′:4,5]cyclopenta [1,2-c]pyrazol-6-yl)-3,6-dihydropyridin-1(2H)-yl) (morpholino)methanone], for which the concentration for half-maximal inhibition (IC50) at FLT3 kinase and at FLT3-D835Y mutant kinase was less than 1 nM throughout.
